{
  "source": "patent US10266537B2",
  "about": "“3-acetylenyl-pyrazole-pyrimidine derivative, and preparation method therefor and uses thereof” (Si Chuan University, priority 2015, dated 2019)",
  "key": {"MM.1S": {"test_system": "MM.1S", "experiment": "Cell proliferation inhibition assay (MTT)", "assay_type": "cell-based", "conditions": "Homo sapiens, MM1.S, 72 hours, read-out: Proliferation inhibitory activity IC50", "method": "(§1) The cells were seeded in 96-well plates with 200 μL of cell suspension per well and incubated overnight in a cell culture medium with a cell concentration of 1 2×10^4 cells/mL. The next day, the supernatant was discarded (the suspension cell was centrifuged before it) and the cells were treated with gradient concentrations of the test compound, respectively. […] After 72 hours, add 20 μL of MTT reagent at a concentration of 5 mg/mL per well. After incubation for 2-4 h, the supernatant was discarded and 150 μL of DMSO was added to each well. […] Relative cell proliferation inhibition rate=([MUT]-[MUT])×100%/[MUT]. The experiment was repeated at least 3 times. Experimental data were expressed as mean, data statistics using t test, P<0.05 for the difference was statistically significant."}, "PEK(h)": {"target": "PEK(h) (Homo sapiens (Human), UniProt Q9NZJ5)", "sequence (Q9NZJ5 30-1116)": "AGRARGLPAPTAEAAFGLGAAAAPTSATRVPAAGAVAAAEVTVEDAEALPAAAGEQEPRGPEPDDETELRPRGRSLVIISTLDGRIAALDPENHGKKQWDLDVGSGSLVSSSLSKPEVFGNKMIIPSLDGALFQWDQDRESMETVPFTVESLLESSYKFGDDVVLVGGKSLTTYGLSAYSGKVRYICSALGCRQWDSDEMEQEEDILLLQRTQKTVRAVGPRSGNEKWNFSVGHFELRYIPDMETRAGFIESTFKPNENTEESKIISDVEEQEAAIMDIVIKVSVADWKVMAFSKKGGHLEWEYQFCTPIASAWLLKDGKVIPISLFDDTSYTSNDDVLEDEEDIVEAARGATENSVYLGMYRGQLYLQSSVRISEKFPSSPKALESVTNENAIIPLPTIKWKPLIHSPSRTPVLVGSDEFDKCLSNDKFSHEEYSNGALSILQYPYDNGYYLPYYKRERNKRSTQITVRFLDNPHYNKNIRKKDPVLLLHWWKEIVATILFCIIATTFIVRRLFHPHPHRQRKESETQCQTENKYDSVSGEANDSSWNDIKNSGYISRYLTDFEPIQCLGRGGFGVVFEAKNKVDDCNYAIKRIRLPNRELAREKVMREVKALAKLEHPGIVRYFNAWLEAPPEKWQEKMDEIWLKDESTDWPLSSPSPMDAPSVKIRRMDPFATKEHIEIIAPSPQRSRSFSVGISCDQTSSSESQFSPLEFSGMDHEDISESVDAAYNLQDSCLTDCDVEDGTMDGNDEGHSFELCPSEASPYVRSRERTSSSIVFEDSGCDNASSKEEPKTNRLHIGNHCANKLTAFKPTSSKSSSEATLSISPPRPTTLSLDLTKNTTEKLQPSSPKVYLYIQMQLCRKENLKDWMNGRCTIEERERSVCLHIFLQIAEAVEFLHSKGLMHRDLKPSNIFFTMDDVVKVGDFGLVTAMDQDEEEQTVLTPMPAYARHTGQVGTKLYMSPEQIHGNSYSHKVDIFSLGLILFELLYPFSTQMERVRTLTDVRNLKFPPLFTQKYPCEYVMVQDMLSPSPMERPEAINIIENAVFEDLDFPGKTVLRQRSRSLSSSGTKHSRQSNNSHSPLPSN", "experiment": "Kinase inhibition assay (KinaseProfiler, 33P-ATP)", "assay_type": "biochemical", "conditions": "read-out: The percentage of the remaining active protein"}, "FGFR4(h)": {"target": "FGFR4(h) (Homo sapiens (Human), UniProt P22455)", "experiment": "Kinase inhibition assay (KinaseProfiler, 33P-ATP)", "assay_type": "biochemical", "conditions": "read-out: The percentage of the remaining active protein"}, "[1]": {"target": "PI3 Kinase (p110a/p65a)(h) (Homo sapiens (Human), UniProt P42336)", "experiment": "Kinase inhibition assay (KinaseProfiler, 33P-ATP)", "assay_type": "biochemical", "conditions": "read-out: The percentage of the remaining active protein"}, "CDK2/cyclinA(h)": {"target": "CDK2/cyclinA(h) (Homo sapiens (Human), UniProt P24941)", "experiment": "Kinase inhibition assay (KinaseProfiler, 33P-ATP)", "assay_type": "biochemical", "conditions": "read-out: The percentage of the remaining active protein"}, "PI3 Kinase (p120g)(h)": {"target": "PI3 Kinase (p120g)(h) (Homo sapiens (Human), UniProt P48736)", "experiment": "Kinase inhibition assay (KinaseProfiler, 33P-ATP)", "assay_type": "biochemical", "conditions": "read-out: The percentage of the remaining active protein"}, "MAPKAP-K3(h)": {"target": "MAPKAP-K3(h) (Homo sapiens (Human), UniProt Q16644)", "experiment": "Kinase inhibition assay (KinaseProfiler, 33P-ATP)", "assay_type": "biochemical", "conditions": "read-out: The percentage of the remaining active protein"}, "MST4(h)": {"target": "MST4(h) (Homo sapiens (Human), UniProt Q9P289)", "experiment": "Kinase inhibition assay (KinaseProfiler, 33P-ATP)", "assay_type": "biochemical", "conditions": "read-out: The percentage of the remaining active protein"}, "cKit (V560G)": {"target": "cKit (V560G) (Homo sapiens (Human), UniProt P10721, V560G)", "experiment": "Kinase inhibition assay (KinaseProfiler, 33P-ATP)", "assay_type": "biochemical", "conditions": "cKit(V560G)(h), read-out: The percentage of the remaining active protein"}, "SRPK1(h)": {"target": "SRPK1(h) (Homo sapiens (Human), UniProt Q96SB4)", "experiment": "Kinase inhibition assay (KinaseProfiler, 33P-ATP)", "assay_type": "biochemical", "conditions": "read-out: The percentage of the remaining active protein"}, "[2]": {"target": "PI3 Kinase (p110a(E542K)/p85a)(m) (Mus musculus (Mouse), UniProt P42337, E542K)", "experiment": "Kinase inhibition assay (KinaseProfiler, 33P-ATP)", "assay_type": "biochemical", "conditions": "read-out: The percentage of the remaining active protein"}, "CDK1/cyclinB(h)": {"target": "CDK1/cyclinB(h) (Homo sapiens (Human), UniProt P06493)", "experiment": "Kinase inhibition assay (KinaseProfiler, 33P-ATP)", "assay_type": "biochemical", "conditions": "read-out: The percentage of the remaining active protein"}, "[3]": {"target": "PI3 Kinase (p110d/p85a)(m) (Mus musculus (Mouse), UniProt O35904)", "experiment": "Kinase inhibition assay (KinaseProfiler, 33P-ATP)", "assay_type": "biochemical", "conditions": "read-out: The percentage of the remaining active protein"}, "Met(M1268T)(h)": {"target": "Met(M1268T)(h) (Homo sapiens (Human), UniProt P08581, M1268T)", "experiment": "Kinase inhibition assay (KinaseProfiler, 33P-ATP)", "assay_type": "biochemical", "conditions": "read-out: The percentage of the remaining active protein"}, "JAK1": {"target": "JAK1 (Homo sapiens (Human), UniProt P23458)", "experiment": "Kinase inhibition assay (KinaseProfiler, 33P-ATP)", "assay_type": "biochemical", "conditions": "JAK1(h), read-out: The percentage of the remaining active protein"}, "U251": {"test_system": "U251", "experiment": "Cell proliferation inhibition assay (MTT)", "assay_type": "cell-based", "conditions": "Homo sapiens, U-251, 72 hours, read-out: Proliferation inhibitory activity IC50", "method": "as §1"}, "PAK2(h)": {"target": "PAK2(h) (Homo sapiens (Human), UniProt Q13177)", "sequence (Q13177 whole entry)": "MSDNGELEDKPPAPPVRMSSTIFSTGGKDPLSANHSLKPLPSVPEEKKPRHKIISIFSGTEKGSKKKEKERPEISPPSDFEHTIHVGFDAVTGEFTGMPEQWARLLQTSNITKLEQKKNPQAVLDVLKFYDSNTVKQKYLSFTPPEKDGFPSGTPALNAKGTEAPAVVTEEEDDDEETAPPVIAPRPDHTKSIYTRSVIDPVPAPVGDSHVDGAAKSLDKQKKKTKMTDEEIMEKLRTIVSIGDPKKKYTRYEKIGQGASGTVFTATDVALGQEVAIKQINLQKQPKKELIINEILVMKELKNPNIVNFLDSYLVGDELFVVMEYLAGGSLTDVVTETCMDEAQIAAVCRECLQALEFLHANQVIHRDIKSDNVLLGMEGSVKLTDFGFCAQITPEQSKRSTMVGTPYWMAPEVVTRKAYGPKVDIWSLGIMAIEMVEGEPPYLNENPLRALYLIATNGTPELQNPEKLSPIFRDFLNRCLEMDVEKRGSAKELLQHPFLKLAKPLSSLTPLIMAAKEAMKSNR", "experiment": "Kinase inhibition assay (KinaseProfiler, 33P-ATP)", "assay_type": "biochemical", "conditions": "read-out: The percentage of the remaining active protein"}, "CK2α2(h)": {"target": "CK2α2(h) (Homo sapiens (Human), UniProt P19784)", "experiment": "Kinase inhibition assay (KinaseProfiler, 33P-ATP)", "assay_type": "biochemical", "conditions": "read-out: The percentage of the remaining active protein"}, "Ros(h)": {"target": "Ros(h) (Homo sapiens (Human), UniProt P08922)", "experiment": "Kinase inhibition assay (KinaseProfiler, 33P-ATP)", "assay_type": "biochemical", "conditions": "read-out: The percentage of the remaining active protein"}, "CDK3/cyclinE(h)": {"target": "CDK3/cyclinE(h) (Homo sapiens (Human), UniProt Q00526)", "experiment": "Kinase inhibition assay (KinaseProfiler, 33P-ATP)", "assay_type": "biochemical", "conditions": "read-out: The percentage of the remaining active protein"}, "CHK2(I157T)(h)": {"target": "CHK2(I157T)(h) (Homo sapiens (Human), UniProt O96017, I157T)", "experiment": "Kinase inhibition assay (KinaseProfiler, 33P-ATP)", "assay_type": "biochemical", "conditions": "read-out: The percentage of the remaining active protein"}, "DAPK2(h)": {"target": "DAPK2(h) (Homo sapiens (Human), UniProt Q9UIK4)", "sequence (Q9UIK4 whole entry)": "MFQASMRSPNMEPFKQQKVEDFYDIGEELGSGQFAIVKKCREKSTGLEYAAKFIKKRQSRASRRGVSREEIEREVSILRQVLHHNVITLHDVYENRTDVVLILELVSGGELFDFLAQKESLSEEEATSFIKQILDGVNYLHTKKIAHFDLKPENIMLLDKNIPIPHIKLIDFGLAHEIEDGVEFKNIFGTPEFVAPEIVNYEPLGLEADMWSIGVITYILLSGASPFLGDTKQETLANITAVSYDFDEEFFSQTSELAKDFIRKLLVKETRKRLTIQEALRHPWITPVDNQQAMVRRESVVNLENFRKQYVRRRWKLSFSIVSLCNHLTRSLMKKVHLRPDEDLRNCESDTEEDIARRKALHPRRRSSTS", "experiment": "Kinase inhibition assay (KinaseProfiler, 33P-ATP)", "assay_type": "biochemical", "conditions": "read-out: The percentage of the remaining active protein"}, "Rsk1(h)": {"target": "Rsk1(h) (Homo sapiens (Human), UniProt Q15418)", "experiment": "Kinase inhibition assay (KinaseProfiler, 33P-ATP)", "assay_type": "biochemical", "conditions": "read-out: The percentage of the remaining active protein"}, "TAO2": {"target": "TAO2 (Homo sapiens (Human), UniProt Q9UL54)", "experiment": "Kinase inhibition assay (KinaseProfiler, 33P-ATP)", "assay_type": "biochemical", "conditions": "TAO2(h), read-out: The percentage of the remaining active protein"}, "Flt3(D835Y)(h)": {"target": "Flt3(D835Y)(h) (Homo sapiens (Human), UniProt P36888, D835Y)", "experiment": "Kinase inhibition assay (KinaseProfiler, 33P-ATP)", "assay_type": "biochemical", "conditions": "read-out: The percentage of the remaining active protein"}, "AMPKα2(h)": {"target": "AMPKα2(h) (Homo sapiens (Human), UniProt P54646)", "experiment": "Kinase inhibition assay (KinaseProfiler, 33P-ATP)", "assay_type": "biochemical", "conditions": "read-out: The percentage of the remaining active protein"}, "IR(h), activated": {"target": "IR(h), activated (Homo sapiens (Human), UniProt P06213)", "experiment": "Kinase inhibition assay (KinaseProfiler, 33P-ATP)", "assay_type": "biochemical", "conditions": "read-out: The percentage of the remaining active protein"}, "Syk(h)": {"target": "Syk(h) (Homo sapiens (Human), UniProt P43405)", "experiment": "Kinase inhibition assay (KinaseProfiler, 33P-ATP)", "assay_type": "biochemical", "conditions": "read-out: The percentage of the remaining active protein"}, "PKCμ(h)": {"target": "PKCμ(h) (Homo sapiens (Human), UniProt Q15139)", "experiment": "Kinase inhibition assay (KinaseProfiler, 33P-ATP)", "assay_type": "biochemical", "conditions": "read-out: The percentage of the remaining active protein"}, "TrkC(h)": {"target": "TrkC(h) (Homo sapiens (Human), UniProt Q16288)", "experiment": "Kinase inhibition assay (KinaseProfiler, 33P-ATP)", "assay_type": "biochemical", "conditions": "read-out: The percentage of the remaining active protein"}, "Abl(m)": {"target": "Abl(m) (Mus musculus (Mouse), UniProt P00520)", "sequence (P00520 whole entry)": "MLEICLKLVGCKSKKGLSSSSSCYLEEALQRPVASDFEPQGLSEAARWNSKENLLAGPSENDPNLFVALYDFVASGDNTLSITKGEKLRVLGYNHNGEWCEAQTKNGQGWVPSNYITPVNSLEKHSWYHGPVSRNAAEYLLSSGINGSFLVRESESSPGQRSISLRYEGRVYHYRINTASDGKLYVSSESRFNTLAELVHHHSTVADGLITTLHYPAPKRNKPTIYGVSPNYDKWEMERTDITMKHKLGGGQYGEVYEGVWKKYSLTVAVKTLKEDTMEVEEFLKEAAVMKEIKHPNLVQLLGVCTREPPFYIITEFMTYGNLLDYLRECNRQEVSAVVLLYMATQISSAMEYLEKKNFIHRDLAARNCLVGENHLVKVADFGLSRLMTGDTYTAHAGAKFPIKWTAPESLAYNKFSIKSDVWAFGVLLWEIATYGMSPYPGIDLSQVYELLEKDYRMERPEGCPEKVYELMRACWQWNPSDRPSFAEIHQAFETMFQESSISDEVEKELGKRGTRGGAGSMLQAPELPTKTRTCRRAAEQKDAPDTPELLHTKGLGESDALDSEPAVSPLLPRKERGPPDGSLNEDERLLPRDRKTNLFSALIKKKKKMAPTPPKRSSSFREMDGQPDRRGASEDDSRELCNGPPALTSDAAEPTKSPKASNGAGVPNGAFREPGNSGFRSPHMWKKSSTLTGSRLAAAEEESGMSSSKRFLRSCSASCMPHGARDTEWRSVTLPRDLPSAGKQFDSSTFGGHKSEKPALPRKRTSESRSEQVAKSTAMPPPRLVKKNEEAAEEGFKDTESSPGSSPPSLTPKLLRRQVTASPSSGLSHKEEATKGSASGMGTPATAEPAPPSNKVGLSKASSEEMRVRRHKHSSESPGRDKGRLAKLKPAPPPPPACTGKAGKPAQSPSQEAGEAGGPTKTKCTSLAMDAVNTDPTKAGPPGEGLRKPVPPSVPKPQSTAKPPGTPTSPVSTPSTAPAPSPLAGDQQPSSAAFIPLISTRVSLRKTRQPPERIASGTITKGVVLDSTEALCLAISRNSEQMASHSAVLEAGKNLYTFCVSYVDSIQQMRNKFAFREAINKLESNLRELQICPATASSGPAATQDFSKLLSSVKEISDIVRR", "experiment": "Kinase inhibition assay (KinaseProfiler, 33P-ATP)", "assay_type": "biochemical", "conditions": "read-out: The percentage of the remaining active protein"}, "IRR(h)": {"target": "IRR(h) (Homo sapiens (Human), UniProt P14616)", "sequence (P14616 27-1297)": "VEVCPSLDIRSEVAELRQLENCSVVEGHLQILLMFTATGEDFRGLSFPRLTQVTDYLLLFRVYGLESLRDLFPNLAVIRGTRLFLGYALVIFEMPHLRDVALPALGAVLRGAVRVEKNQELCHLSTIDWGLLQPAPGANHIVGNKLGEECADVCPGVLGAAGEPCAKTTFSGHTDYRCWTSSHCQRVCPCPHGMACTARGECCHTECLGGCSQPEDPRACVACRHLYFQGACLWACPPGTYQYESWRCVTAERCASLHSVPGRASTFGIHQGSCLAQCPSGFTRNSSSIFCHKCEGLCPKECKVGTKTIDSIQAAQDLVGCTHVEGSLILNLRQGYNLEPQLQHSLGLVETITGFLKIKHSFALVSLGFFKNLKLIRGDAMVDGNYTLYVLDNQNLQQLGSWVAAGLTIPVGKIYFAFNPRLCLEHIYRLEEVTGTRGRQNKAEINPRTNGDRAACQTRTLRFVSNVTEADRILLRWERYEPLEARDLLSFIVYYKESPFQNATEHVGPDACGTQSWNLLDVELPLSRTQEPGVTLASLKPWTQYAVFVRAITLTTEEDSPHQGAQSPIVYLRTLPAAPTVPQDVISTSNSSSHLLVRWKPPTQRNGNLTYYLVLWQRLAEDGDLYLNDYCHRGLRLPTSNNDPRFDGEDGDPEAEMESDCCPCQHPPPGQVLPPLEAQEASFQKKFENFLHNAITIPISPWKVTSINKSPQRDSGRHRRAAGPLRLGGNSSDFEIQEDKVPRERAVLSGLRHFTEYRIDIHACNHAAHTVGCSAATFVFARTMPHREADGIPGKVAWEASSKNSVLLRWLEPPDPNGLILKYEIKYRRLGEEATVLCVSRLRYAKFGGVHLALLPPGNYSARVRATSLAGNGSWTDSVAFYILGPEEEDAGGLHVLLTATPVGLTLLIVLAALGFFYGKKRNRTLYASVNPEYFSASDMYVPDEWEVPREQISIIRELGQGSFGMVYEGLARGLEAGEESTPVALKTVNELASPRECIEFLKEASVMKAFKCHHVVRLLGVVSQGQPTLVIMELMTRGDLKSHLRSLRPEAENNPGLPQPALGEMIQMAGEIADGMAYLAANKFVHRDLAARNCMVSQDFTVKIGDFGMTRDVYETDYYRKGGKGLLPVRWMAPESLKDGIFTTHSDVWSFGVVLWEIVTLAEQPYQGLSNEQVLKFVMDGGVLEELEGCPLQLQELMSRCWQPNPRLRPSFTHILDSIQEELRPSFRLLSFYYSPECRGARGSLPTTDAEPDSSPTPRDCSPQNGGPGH", "experiment": "Kinase inhibition assay (KinaseProfiler, 33P-ATP)", "assay_type": "biochemical", "conditions": "read-out: The percentage of the remaining active protein"}, "cKit(V654A)(h)": {"target": "cKit(V654A)(h) (Homo sapiens (Human), UniProt P10721, V654A)", "experiment": "Kinase inhibition assay (KinaseProfiler, 33P-ATP)", "assay_type": "biochemical", "conditions": "read-out: The percentage of the remaining active protein"}, "CSK": {"target": "CSK (Homo sapiens (Human), UniProt P41240)", "sequence (P41240 whole entry)": "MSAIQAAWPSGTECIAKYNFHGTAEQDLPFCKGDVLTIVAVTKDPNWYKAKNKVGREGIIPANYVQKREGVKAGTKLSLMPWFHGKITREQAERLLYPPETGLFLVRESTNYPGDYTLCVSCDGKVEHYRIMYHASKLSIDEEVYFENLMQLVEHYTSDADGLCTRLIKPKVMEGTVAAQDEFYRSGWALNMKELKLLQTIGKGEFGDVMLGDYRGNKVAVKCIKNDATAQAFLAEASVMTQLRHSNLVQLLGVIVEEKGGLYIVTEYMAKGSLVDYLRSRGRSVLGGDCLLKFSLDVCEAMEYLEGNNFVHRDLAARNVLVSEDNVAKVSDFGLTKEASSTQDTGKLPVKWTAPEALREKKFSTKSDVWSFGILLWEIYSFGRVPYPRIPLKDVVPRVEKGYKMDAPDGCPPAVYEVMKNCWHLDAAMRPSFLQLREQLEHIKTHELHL", "experiment": "Kinase inhibition assay (KinaseProfiler, 33P-ATP)", "assay_type": "biochemical"}, "CHK2(R145W)(h)": {"target": "CHK2(R145W)(h) (Homo sapiens (Human), UniProt O96017, R145W)", "experiment": "Kinase inhibition assay (KinaseProfiler, 33P-ATP)", "assay_type": "biochemical", "conditions": "read-out: The percentage of the remaining active protein"}},
  "data": [
    {"compound": "Cc1ccc(NC(=O)c2cccc(C(F)(F)F)c2)cc1C#Cc1nn(C2CCN(C)CC2)c2ncnc(N)c12", "note": "[Compound 31]", "values": [
      {"measurement": "IC50", "setting": "MM.1S", "result": 2380, "unit": "nM"}
    ]},
    {"compound": "Cc1ccc(NC(=O)c2ccc(C)c(C(F)(F)F)c2)cc1C#Cc1nn([C@H]2CC[C@H](O)CC2)c2ncnc(N)c12", "note": "[Compound 93]", "values": [
      {"measurement": "remaining activity at 10 µM", "setting": "PEK(h)", "result": 39, "unit": "%"},
      {"measurement": "remaining activity at 10 µM", "setting": "FGFR4(h)", "result": 33, "unit": "%"},
      {"measurement": "remaining activity at 10 µM", "setting": "[1]", "result": 92, "unit": "%"},
      {"measurement": "remaining activity at 10 µM", "setting": "CDK2/cyclinA(h)", "result": 100, "unit": "%"},
      {"measurement": "remaining activity at 10 µM", "setting": "PI3 Kinase (p120g)(h)", "result": 87, "unit": "%"},
      {"measurement": "remaining activity at 10 µM", "setting": "MAPKAP-K3(h)", "result": 96, "unit": "%"},
      {"measurement": "remaining activity at 10 µM", "setting": "MST4(h)", "result": 73, "unit": "%"},
      {"measurement": "remaining activity at 10 µM", "setting": "cKit (V560G)", "result": 0, "unit": "%"},
      {"measurement": "remaining activity at 10 µM", "setting": "SRPK1(h)", "result": 106, "unit": "%"},
      {"measurement": "remaining activity at 10 µM", "setting": "[2]", "result": 92, "unit": "%"},
      {"measurement": "remaining activity at 10 µM", "setting": "CDK1/cyclinB(h)", "result": 104, "unit": "%"},
      {"measurement": "remaining activity at 10 µM", "setting": "[3]", "result": 78, "unit": "%"},
      {"measurement": "remaining activity at 10 µM", "setting": "Met(M1268T)(h)", "result": 136, "unit": "%"},
      {"measurement": "remaining activity at 10 µM", "setting": "JAK1", "result": 3, "unit": "%"},
      {"measurement": "IC50", "setting": "U251", "result": 100, "unit": "nM"},
      {"measurement": "remaining activity at 10 µM", "setting": "PAK2(h)", "result": 68, "unit": "%"},
      {"measurement": "remaining activity at 10 µM", "setting": "CK2α2(h)", "result": 92, "unit": "%"},
      {"measurement": "remaining activity at 10 µM", "setting": "Ros(h)", "result": 82, "unit": "%"},
      {"measurement": "remaining activity at 10 µM", "setting": "CDK3/cyclinE(h)", "result": 93, "unit": "%"},
      {"measurement": "remaining activity at 10 µM", "setting": "CHK2(I157T)(h)", "result": 103, "unit": "%"},
      {"measurement": "remaining activity at 10 µM", "setting": "DAPK2(h)", "result": 95, "unit": "%"},
      {"measurement": "remaining activity at 10 µM", "setting": "Rsk1(h)", "result": 11, "unit": "%"},
      {"measurement": "remaining activity at 10 µM", "setting": "TAO2", "result": 5, "unit": "%"},
      {"measurement": "remaining activity at 10 µM", "setting": "Flt3(D835Y)(h)", "result": 118, "unit": "%"},
      {"measurement": "remaining activity at 10 µM", "setting": "AMPKα2(h)", "result": 90, "unit": "%"},
      {"measurement": "remaining activity at 10 µM", "setting": "IR(h), activated", "result": 89, "unit": "%"},
      {"measurement": "remaining activity at 10 µM", "setting": "Syk(h)", "result": 95, "unit": "%"},
      {"measurement": "remaining activity at 10 µM", "setting": "PKCμ(h)", "result": 91, "unit": "%"},
      {"measurement": "remaining activity at 10 µM", "setting": "TrkC(h)", "result": 17, "unit": "%"},
      {"measurement": "remaining activity at 10 µM", "setting": "Abl(m)", "result": -2, "unit": "%"},
      {"measurement": "remaining activity at 10 µM", "setting": "IRR(h)", "result": 107, "unit": "%"},
      {"measurement": "remaining activity at 10 µM", "setting": "cKit(V654A)(h)", "result": 7, "unit": "%"},
      {"measurement": "remaining activity at 10 µM", "setting": "CSK; CSK(h), 10 μM, read-out: The percentage of the remaining active protein", "result": -1, "unit": "%"},
      {"measurement": "IC50", "setting": "CSK; CSK, ATP at Km", "result": 9, "unit": "nM"},
      {"measurement": "remaining activity at 10 µM", "setting": "CHK2(R145W)(h)", "result": 102, "unit": "%"}
    ]}
  ]
}
